# Measured values as given in patent US9365556B2, “3,5-diaminopyrazole kinase inhibitors” (Axikin Pharmaceuticals, Inc., priority 2012, dated 2016).
# Target: T1, kinase domain protein of RC kinase (Homo sapiens, UniProt Q56UN5)
# T1 sequence (Q56UN5 1061-1324 limits assumed): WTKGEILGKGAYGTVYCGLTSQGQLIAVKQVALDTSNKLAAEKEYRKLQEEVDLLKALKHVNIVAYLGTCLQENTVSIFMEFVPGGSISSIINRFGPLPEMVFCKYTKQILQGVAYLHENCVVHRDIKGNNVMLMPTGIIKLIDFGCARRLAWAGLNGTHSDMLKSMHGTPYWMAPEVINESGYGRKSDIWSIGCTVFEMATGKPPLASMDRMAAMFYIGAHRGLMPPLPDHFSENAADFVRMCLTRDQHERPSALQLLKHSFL
# Assay: Enzymatic assay for kinase inhibitory activity (Crebtide substrate, LANCE read-out)
# Assay type: biochemical
# Settings: compound at 1 μM
# Method: Solutions of a test compound, Crebtide (a substrate), a kinase, and ATP were prepared using 1×MAPK Buffer (50 mM HEPES, 1 mM EGTA, […], 10 mM MgCl2, 2 mM DTT, and 0.01% Tween 20).
# To each well, the test compound (1 μL) was first added (in duplicate) to reach a final concentration of 1 μM or 1×IC50 of the compound. The kinase (5 μl) was then added to each well to reach a final concentration of […] for the kinase domain or […] for the full-length domain. Each plate included a positive and negative controls in duplicate wells. Crebtide (2.5 μL) was then added to each well in duplicate to reach a final concentration of 50 nM. If the full-length kinase was used, the plates were incubated for 45 min at room temperature before proceeding further. ATP (2.5 μL) was added to each well to reach a final concentration of 1 μM for the kinase domain and 3 μM for the full-length.
# After the addition of ATP, the plates were incubated for 45 min at room temperature. During the incubation, an EDTA solution (40 mM) and anti-Crebtide ([…]) were prepared. Additionally, a detection buffer stock solution was diluted ten fold before use.
# After the incubation, the anti-Crebtide (5 μL) and EDTA (5 μL) were added to each well to reach their final concentrations of […] and 10 mM, respectively. The plates were allowed to develop at room temperature for 45 min. The plates were then read at 665 nm and 615 nm using Perkin Elmer Lance machine.
# The biological results of inhibition of the kinase domain protein of RC kinase are summarized in Tables 2 and 3, wherein A represents at least 50% inhibition of the RC kinase activity at 1 μM; B represents no greater than 50% but at least 20% inhibition of the RC kinase activity at 1 μM; C represents no greater than 20% but at least 5% inhibition of the RC kinase activity at 1 μM; and D represents no greater than 5% inhibition of the RC kinase activity at 1 μM.
SMILES,inhibition at 1 µM [%],Activity (inhibition of the RC kinase activity),other results
NC(=O)c1c(Nc2cccc(Cl)c2)n[nH]c1/N=C/c1ccc(-c2ccccn2)s1 [Compound B60],–,D (no greater than 5% inhibition of the RC kinase activity at 1 μM),–
NC(=O)c1c(Nc2cccc(Cl)c2)n[nH]c1/N=C/c1ccc(Oc2ccc(C(F)(F)F)cn2)cc1 [Compound B63],–,B (no greater than 50% but at least 20% inhibition of the RC kinase activity at 1 μM),–
Cc1[nH]c2ccccc2c1/C=N/c1[nH]nc(Nc2cccc(Cl)c2)c1C(N)=O [Compound B69],–,B (no greater than 50% but at least 20% inhibition of the RC kinase activity at 1 μM),–
CCc1nc(C)c(/C=N/c2[nH]nc(Nc3cccc(Cl)c3)c2C(N)=O)[nH]1 [Compound B70],–,B (no greater than 50% but at least 20% inhibition of the RC kinase activity at 1 μM),–
NC(=O)c1c(Nc2cccc(Cl)c2)n[nH]c1/N=C/c1nc(-c2ccccc2)[nH]c1Cl [Compound B72],–,B (no greater than 50% but at least 20% inhibition of the RC kinase activity at 1 μM),–
NC(=O)c1c(Nc2cccc(Cl)c2)n[nH]c1/N=C/c1ccc(-c2ccc(Cl)cc2)o1 [Compound B73],–,B (no greater than 50% but at least 20% inhibition of the RC kinase activity at 1 μM),–
COc1cc(/C=N/c2[nH]nc(Nc3cccc(Cl)c3)c2C(N)=O)cc(O)c1OC [Compound B74],5 to 20,–,–
NC(=O)c1c(Nc2cccc(Cl)c2)n[nH]c1/N=C/c1c[nH]c2c(F)c(F)c(F)c(F)c12 [Compound B76],–,D (no greater than 5% inhibition of the RC kinase activity at 1 μM),–
Cn1nc(C(F)(F)F)c(/C=N/c2[nH]nc(Nc3cccc(Cl)c3)c2C(N)=O)c1Cl [Compound B81],≤ 5,–,–
NC(=O)c1c(Nc2cccc(Cl)c2)n[nH]c1/N=C/c1c(F)cccc1Cl [Compound B82],–,D (no greater than 5% inhibition of the RC kinase activity at 1 μM),–
NC(=O)c1c(Nc2cccc(Cl)c2)n[nH]c1/N=C/c1ccc(OC(F)(F)F)c(F)c1 [Compound B90],–,D (no greater than 5% inhibition of the RC kinase activity at 1 μM),–
Cn1c(Cl)c(/C=N/c2[nH]nc(Nc3cccc(Cl)c3)c2C(N)=O)c2ccccc21 [Compound B91],–,D (no greater than 5% inhibition of the RC kinase activity at 1 μM),–
NC(=O)c1c(Nc2cccc(Cl)c2)n[nH]c1/N=C/c1ccc(Cl)cc1Cl [Compound B93],–,D (no greater than 5% inhibition of the RC kinase activity at 1 μM),–
NC(=O)c1c(Nc2cccc(Cl)c2)n[nH]c1/N=C/C1CCNCC1 [Compound B96],–,D (no greater than 5% inhibition of the RC kinase activity at 1 μM),–
NC(=O)c1c(Nc2cccc(Cl)c2)n[nH]c1/N=C/c1ccc(-n2cnc3ccccc32)cc1 [Compound B97],–,D (no greater than 5% inhibition of the RC kinase activity at 1 μM),–
NC(=O)c1c(Nc2cccc(Cl)c2)n[nH]c1/N=C/c1c[nH]nc1-c1ccc(F)cc1 [Compound B98],–,C (no greater than 20% but at least 5% inhibition of the RC kinase activity at 1 μM),–
N#Cc1c(Nc2cccc(Cl)c2)n[nH]c1/N=C/c1cnc(N)s1 [Compound B99],–,–,Activity (inhibition of the RC kinase activity) (1 µM): A (at least 50% inhibition of the RC kinase activity at 1 μM)
Cc1cc(/C=N/c2[nH]nc(Nc3cccc(Cl)c3)c2C#N)no1 [Compound B100],–,C (no greater than 20% but at least 5% inhibition of the RC kinase activity at 1 μM),–
NC(=O)c1c(Nc2cccc(Cl)c2)n[nH]c1/N=C/c1cccnc1Cl [Compound B105],–,C (no greater than 20% but at least 5% inhibition of the RC kinase activity at 1 μM),–
COc1cc(O)cc(OC)c1/C=N/c1[nH]nc(Nc2cccc(Cl)c2)c1C(N)=O [Compound B108],–,B (no greater than 50% but at least 20% inhibition of the RC kinase activity at 1 μM),–

# Now from value to compound, other results behind:
inhibition at 1 µM [%],SMILES,Activity (inhibition of the RC kinase activity),other results
≥ 50,"Cc1cc(/C=N/c2[nH]nc(Nc3cccc(Cl)c3)c2C(N)=O)cc(C)c1O [Compound B61, 3-((3-chlorophenyl)amino)-5-((4-hydroxy-3,5-dimethylbenzylidene)amino)-1H-pyrazole-4-carboxamide]",–,–
≥ 50,"Cc1ncsc1/C=N/c1[nH]nc(Nc2cccc(Cl)c2)c1C(N)=O [Compound B62, 3-((3-chlorophenyl)amino)-5-(((4-methylthiazol-5-yl)methylene)amino)-1H-pyrazole-4-carboxamide]",–,–
≥ 50,"NC(=O)c1c(Nc2cccc(Cl)c2)n[nH]c1/N=C/c1ccc(Oc2ncccn2)cc1 [Compound B64, 3-((3-chlorophenyl)amino)-5-((4-(pyrimidin-2-yloxy)benzylidene)amino)-1H-pyrazole-4-carboxamide]",–,–
20 to 50,NC(=O)c1c(Nc2cccc(Cl)c2)n[nH]c1/N=C/c1ccccc1-c1cccs1 [Compound B65],–,–
20 to 50,NC(=O)c1c(Nc2cccc(Cl)c2)n[nH]c1/N=C/c1ccc(N2CCCC2)nc1 [Compound B66],–,–
20 to 50,Cn1nc(CSc2ccccc2)c(/C=N/c2[nH]nc(Nc3cccc(Cl)c3)c2C(N)=O)c1Cl [Compound B67],–,–
≥ 50,NC(=O)c1c(Nc2cccc(Cl)c2)n[nH]c1/N=C/c1ccc(OC(F)F)c(O)c1 [Compound B68],–,–
20 to 50,"NC(=O)c1c(Nc2cccc(Cl)c2)n[nH]c1/N=C/c1cccn1S(=O)(=O)c1ccccc1 [Compound B71, 3-((3-chlorophenyl)amino)-5-(((1-(phenylsulfonyl)-1H-pyrrol-2-yl)methylene)amino)-1H-pyrazole-4-carboxamide]",–,–
5 to 20,NC(=O)c1c(Nc2cccc(Cl)c2)n[nH]c1/N=C/c1ccc(Oc2nccc(C(F)(F)F)n2)cc1 [Compound B75],–,–
5 to 20,NC(=O)c1c(Nc2cccc(Cl)c2)n[nH]c1/N=C/c1cccc(Oc2ncccn2)c1 [Compound B77],–,–
≤ 5,NC(=O)c1c(Nc2cccc(Cl)c2)n[nH]c1/N=C/c1ncc(Cl)nc1Cl [Compound B78],–,–
≤ 5,NC(=O)c1c(Nc2cccc(Cl)c2)n[nH]c1/N=C/c1cnccn1 [Compound B80],–,–
5 to 20,NC(=O)c1c(Nc2cccc(Cl)c2)n[nH]c1/N=C/c1ccc(F)cc1O [Compound B83],–,–
≥ 50,"NC(=O)c1c(Nc2cccc(Cl)c2)n[nH]c1/N=C/c1ccc(CO)o1 [Compound B84, 3-((3-chlorophenyl)amino)-5-(((5-(hydroxymethyl)furan-2-yl)methylene)amino)-1H-pyrazole-4-carboxamide]",–,–
≥ 50,"NC(=O)c1c(Nc2cccc(Cl)c2)n[nH]c1/N=C/c1cc(F)c(O)c(F)c1 [Compound B86, 3-((3-chlorophenyl)amino)-5-((3,5-difluoro-4-hydroxybenzylidene)amino)-1H-pyrazole-4-carboxamide]",–,–
≤ 5,N#Cc1cc(/C=N/c2[nH]nc(Nc3cccc(Cl)c3)c2C(N)=O)ccc1F [Compound B87],–,–
≤ 5,NC(=O)c1c(Nc2cccc(Cl)c2)n[nH]c1/N=C/c1ncccc1F [Compound B88],–,–
≤ 5,"CS(=O)(=O)c1ccc(/C=N/c2[nH]nc(Nc3cccc(Cl)c3)c2C(N)=O)cc1 [Compound B92, 3-((3-chlorophenyl)amino)-5-((4-(methylsulfonyl)benzylidene)amino)-1H-pyrazole-4-carboxamide]",–,–
5 to 20,NC(=O)c1c(Nc2cccc(Cl)c2)n[nH]c1/N=C/c1ccc(Cl)cc1O [Compound B94],–,–
5 to 20,NC(=O)c1c(Nc2cccc(Cl)c2)n[nH]c1/N=C/c1ccc(N2CCOCC2)nc1 [Compound B101],–,–
5 to 20,NC(=O)c1c(Nc2cccc(Cl)c2)n[nH]c1/N=C/c1c(O)cccc1Cl [Compound B103],–,–
20 to 50,"NC(=O)c1c(Nc2cccc(Cl)c2)n[nH]c1/N=C/c1cccc(OCCO)c1 [Compound B104, 3-((3-chlorophenyl)amino)-5-((3-(2-hydroxyethoxy)benzylidene)amino)-1H-pyrazole-4-carboxamide]",–,–
≤ 5,Cc1ccc(/C=N/c2[nH]nc(Nc3cccc(Cl)c3)c2C(N)=O)c(O)c1 [Compound B106],–,–
≤ 5,NC(=O)c1c(Nc2cccc(Cl)c2)n[nH]c1/N=C/c1ccc(OCc2ccc(F)cc2)cc1 [Compound B107],–,–
5 to 20,NC(=O)c1c(Nc2cccc(Cl)c2)n[nH]c1/N=C/c1ccc(OCCO)cc1 [Compound B109],–,–
